Experiment: White rabbit vaginal irritation and toxicity study (10 days)
Assay type: in vivo
Settings: female rabbits, 10 days after application; animals with finding
Procedure: Gel formulations of the compound B at different concentrations were used to study the exclusion of any irritation in a Rabbit Vaingal Irritation test. 10 days after the application of the gel formulations onto 6 different rabbit groups, vaginal and cervical epithelium were carefully examined by a pathologist macroscopically and histologically. The following scores were determined.

## Nonoxynol-9 [Nonoxynol-9, 4%]
  Cervical examination: Epithelial loss and atrophy, Marked: 3
  Cervical examination: Epithelial loss and atrophy, Slight: 1
  Cervical examination: Epithelial loss and atrophy, Total: 4a
  Cervical examination: Luminal Inflammatory cells, Present: 4
  Cervical examination: Luminal Inflammatory cells, Total: 4a
  Vaginal examination: Epithelial inflammatory infiltrate, Minimal: 3
  Vaginal examination: Epithelial inflammatory infiltrate, Slight: 2
  Vaginal examination: Epithelial inflammatory infiltrate, Total: 5a
  Vaginal examination: Epithelial loss and atrophy, Marked: 2
  Vaginal examination: Epithelial loss and atrophy, Severe: 3
  Vaginal examination: Epithelial loss and atrophy, Total: 5b

From US20200345733A1, “Microbicidal Pyrimidine or Triazine Containing Compounds” (Janssen Sciences Ireland UC, priority 2002, published 2020)
